The numbers were not newly measured in patent US20060211664A1, “Method for treating erectile dysfunction and increasing libido in men” (priority 2002, published 2006), which cites them from elsewhere.

Where a name gives a salt, the structure may show the parent alone.

Data set [1] addresses sex hormone binding globulin (SHBG) and albumin (Homo sapiens, UniProt P02768). To be noted: in men.
In data set [2] the target is T1, sex hormone binding globulin (SHBG) and albumin (Homo sapiens, UniProt P04278).
T1 sequence (P04278 30-402): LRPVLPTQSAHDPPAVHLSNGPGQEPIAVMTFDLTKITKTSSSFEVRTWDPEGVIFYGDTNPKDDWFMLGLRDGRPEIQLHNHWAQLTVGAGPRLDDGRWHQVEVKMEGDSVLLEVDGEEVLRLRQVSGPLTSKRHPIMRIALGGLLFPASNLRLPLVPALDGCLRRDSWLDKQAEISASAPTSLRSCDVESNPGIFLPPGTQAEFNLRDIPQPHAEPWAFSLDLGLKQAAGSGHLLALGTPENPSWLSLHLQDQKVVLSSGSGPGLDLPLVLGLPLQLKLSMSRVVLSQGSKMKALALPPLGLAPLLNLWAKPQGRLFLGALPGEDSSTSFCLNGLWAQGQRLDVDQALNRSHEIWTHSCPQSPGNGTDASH
To be noted: in men, high-affinity.

The test system of data set [3] is sex hormone binding globulin (SHBG) and albumin. To be noted: blood.
In data set [4] the test system is isolated human corpus cavernosum.

sex hormone binding globulin (SHBG) and albumin (Homo sapiens, UniProt P02768), sequence (P02768 25-609): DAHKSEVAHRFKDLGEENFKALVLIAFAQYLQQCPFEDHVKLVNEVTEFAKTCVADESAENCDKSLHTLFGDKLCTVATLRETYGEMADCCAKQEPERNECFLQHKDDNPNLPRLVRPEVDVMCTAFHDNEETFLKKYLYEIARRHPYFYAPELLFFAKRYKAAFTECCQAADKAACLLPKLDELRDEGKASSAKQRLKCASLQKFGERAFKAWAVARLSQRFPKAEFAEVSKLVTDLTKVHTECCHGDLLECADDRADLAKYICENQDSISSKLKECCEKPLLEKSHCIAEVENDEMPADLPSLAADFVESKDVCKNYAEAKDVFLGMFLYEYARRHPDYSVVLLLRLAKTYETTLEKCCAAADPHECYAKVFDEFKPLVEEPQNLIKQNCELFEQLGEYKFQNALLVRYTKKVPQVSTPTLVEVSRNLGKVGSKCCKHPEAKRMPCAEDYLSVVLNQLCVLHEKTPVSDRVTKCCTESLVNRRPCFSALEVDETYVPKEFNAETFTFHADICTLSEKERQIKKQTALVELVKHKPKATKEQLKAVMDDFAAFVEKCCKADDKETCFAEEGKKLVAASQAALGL

Turning to `C[C@]12CC[C@H]3[C@@H](CCC4=CC(=O)CC[C@@]43C)[C@@H]1CC[C@@H]2O` [Testosterone, testosterone], the “share of the binding bound weakly to albumin” value in data set [1] was 60%. For the same compound, the “share of the binding to sex hormone binding globulin (SHBG)” value in data set [2] was “approximately 40%”. The “testosterone in the blood bound to protein” value in data set [3] is given as 98%.

For `CCCc1nn(C)c2c(=O)[nH]c(-c3cc(S(=O)(=O)N4CCN(C)CC4)ccc3OCC)nc12` [VIAGRA®, sildenafil citrate USP], the “direct relaxant effect on isolated human corpus cavernosum” value in data set [4] was “no direct relaxant effect”.
